Assay results as given in the supplement of paper PMC10883282.

Legend:
Experiment in all cases: relative viability vs DMSO control (72 h) (fraction); higher = more viable cells
SYO-1 = tested on: SYO-1
Procedure, shortened: (§1)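 Relative viability is percent growth read by ATPLite and averaged over up to triplicate wells. Sarcoma cells were seeded in 384-well plates to reach 80–90% confluence and given 2.5 µl of serially diluted compound after 24 h, from source plates of 10 mM to 0.0002 mM. Incubation lasted 72 h at 37 °C, 5% CO2, with 0.1% DMSO vehicle and a 5 µM positive control, and the data were rescaled so 1 equals full and 0 equals none.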

SK-LMS-1 = tested on: SK-LMS-1
Procedure, shortened: as §1

RD = tested on: RD
Procedure, shortened: as §1

HS729 = tested on: HS729
Procedure, shortened: as §1

SK-ES-1 = tested on: SK-ES-1
Procedure, shortened: as §1

A204 = tested on: A204
Procedure, shortened: as §1

VA-ES-BJ = tested on: VA-ES-BJ
Procedure, shortened: as §1

KHOS-NP = tested on: KHOS-NP
Procedure, shortened: as §1

SW872 = tested on: SW872
Procedure, shortened: as §1

MES-SA = tested on: MES-SA
Procedure, shortened: as §1

G401 = tested on: G401
Procedure, shortened: as §1

SW684 = tested on: SW684
Procedure, shortened: as §1

NC(=O)c1cnc2[nH]ccc2c1N[C@@H]1[C@@H]2CC3C[C@H]1C[C@@](O)(C3)C2 [Peficitinib]
Conditions | relative viability
A204, 0.00017 µM | 1.06
A204, 0.00051 µM | 1.07
A204, 0.00152 µM | 1.07
A204, 0.00457 µM | 1.06
A204, 0.01372 µM | 1.06
A204, 0.04115 µM | 1.07
A204, 0.1235 µM | 1.02
A204, 0.3704 µM | 0.959
A204, 1.111 µM | 0.913
A204, 3.333 µM | 0.705
A204, 10 µM | 0.435
G401, 0.00017 µM | 0.9962
G401, 0.00051 µM | 1.01
G401, 0.00152 µM | 1
G401, 0.00457 µM | 1.01
G401, 0.01372 µM | 1.05
G401, 0.04115 µM | 1.04
G401, 0.1235 µM | 1.08
G401, 0.3704 µM | 1.14
G401, 1.111 µM | 1.19
G401, 3.333 µM | 1.14
G401, 10 µM | 1.01
HS729, 0.00017 µM | 1.04
HS729, 0.00051 µM | 1.02
HS729, 0.00152 µM | 1.03
HS729, 0.00457 µM | 1.04
HS729, 0.01372 µM | 0.984
HS729, 0.04115 µM | 1
HS729, 0.1235 µM | 0.985
HS729, 0.3704 µM | 1.02
HS729, 1.111 µM | 0.977
HS729, 3.333 µM | 0.9905
HS729, 10 µM | 0.758
KHOS-NP, 0.00017 µM | 1.09
KHOS-NP, 0.00051 µM | 1.06
KHOS-NP, 0.00152 µM | 1.08
KHOS-NP, 0.00457 µM | 1.07
KHOS-NP, 0.01372 µM | 1.05
KHOS-NP, 0.04115 µM | 1.06
KHOS-NP, 0.1235 µM | 1.07
KHOS-NP, 0.3704 µM | 1.07
KHOS-NP, 1.111 µM | 1.07
KHOS-NP, 3.333 µM | 1.02
KHOS-NP, 10 µM | 0.671
MES-SA, 0.00017 µM | 0.913
MES-SA, 0.00051 µM | 0.9465
MES-SA, 0.00152 µM | 0.9008
MES-SA, 0.00457 µM | 0.918
MES-SA, 0.01372 µM | 0.9
MES-SA, 0.04115 µM | 0.94
MES-SA, 0.1235 µM | 0.945
MES-SA, 0.3704 µM | 0.971
MES-SA, 1.111 µM | 0.981
MES-SA, 3.333 µM | 0.769
MES-SA, 10 µM | 0.388
RD, 0.00017 µM | 1.03
RD, 0.00051 µM | 1.04
RD, 0.00152 µM | 1.04
RD, 0.00457 µM | 1.04
RD, 0.01372 µM | 1.03
RD, 0.04115 µM | 1.05
RD, 0.1235 µM | 1.07
RD, 0.3704 µM | 1.1
RD, 1.111 µM | 1.117
RD, 3.333 µM | 1.099
RD, 10 µM | 1.01
SK-ES-1, 0.00017 µM | 0.984
SK-ES-1, 0.00051 µM | 1.01
SK-ES-1, 0.00152 µM | 1.02
SK-ES-1, 0.00457 µM | 0.97
SK-ES-1, 0.01372 µM | 0.9884
SK-ES-1, 0.04115 µM | 1.02
SK-ES-1, 0.1235 µM | 1.02
SK-ES-1, 0.3704 µM | 1.04
SK-ES-1, 1.111 µM | 0.989
SK-ES-1, 3.333 µM | 0.796
SK-ES-1, 10 µM | 0.102
SK-LMS-1, 0.00017 µM | 1.09
SK-LMS-1, 0.00051 µM | 1.09
SK-LMS-1, 0.00152 µM | 1.05
SK-LMS-1, 0.00457 µM | 1.076
SK-LMS-1, 0.01372 µM | 1.1
SK-LMS-1, 0.04115 µM | 1.07
SK-LMS-1, 0.1235 µM | 1.08
SK-LMS-1, 0.3704 µM | 1.08
SK-LMS-1, 1.111 µM | 1.13
SK-LMS-1, 3.333 µM | 1.11
SK-LMS-1, 10 µM | 0.965
SW684, 0.00017 µM | 1.08
SW684, 0.00051 µM | 1.09
SW684, 0.00152 µM | 1.11
SW684, 0.00457 µM | 1.12
SW684, 0.01372 µM | 1.12
SW684, 0.04115 µM | 1.12
SW684, 0.1235 µM | 1.12
SW684, 0.3704 µM | 1.15
SW684, 1.111 µM | 1.17
SW684, 3.333 µM | 1.09
SW684, 10 µM | 0.827
SW872, 0.00017 µM | 1.01
SW872, 0.00051 µM | 1.03
SW872, 0.00152 µM | 1.037
SW872, 0.00457 µM | 0.985
SW872, 0.01372 µM | 1.033
SW872, 0.04115 µM | 1.03
SW872, 0.1235 µM | 1.02
SW872, 0.3704 µM | 0.996
SW872, 1.111 µM | 0.999
SW872, 3.333 µM | 0.932
SW872, 10 µM | 0.767
SYO-1, 0.00017 µM | 1
SYO-1, 0.00051 µM | 0.981
SYO-1, 0.00152 µM | 0.985
SYO-1, 0.00457 µM | 0.995
SYO-1, 0.01372 µM | 0.975
SYO-1, 0.04115 µM | 0.97
SYO-1, 0.1235 µM | 0.953
SYO-1, 0.3704 µM | 0.933
SYO-1, 1.111 µM | 0.705
SYO-1, 3.333 µM | 0.56
SYO-1, 10 µM | 0.405
VA-ES-BJ, 0.00017 µM | 1.06
VA-ES-BJ, 0.00051 µM | 1.03
VA-ES-BJ, 0.00152 µM | 1.01
VA-ES-BJ, 0.00457 µM | 1.01
VA-ES-BJ, 0.01372 µM | 1.04
VA-ES-BJ, 0.04115 µM | 1.06
VA-ES-BJ, 0.1235 µM | 1.04
VA-ES-BJ, 0.3704 µM | 1.05
VA-ES-BJ, 1.111 µM | 1.08
VA-ES-BJ, 3.333 µM | 1.042
VA-ES-BJ, 10 µM | 0.887
